Source: patent US11389415B2, “Methods of regulating cannabinoid receptor activity-related disorders and diseases” (The United States of America as represented by the …, priority 2012, dated 2022)

Test system: rat C6 glioma xenografts
Test: Gene expression profiling (microarray, GO term and PAGE gene set analysis) in rat C6 glioma xenografts
Assay type: in vivo, mouse
Settings: MNF_Control
Protocol: Analysis of gene expression in rat C6 glioma xenografts. Total RNA was isolated from rat C6 glioma xenografts harvested from vehicle and MNF-treated mice (n=3 per group, cohort 1). This analysis was repeated in a second cohort of animals (n=3 per group, cohort 2). Total cellular RNA was extracted using an RNeasy plus mini kit (QIAGEN, Valencia, Calif.), and its quality was assessed using an Agilent BioAnalyzer using RNA 6000 Nano Chips (Agilent Technologies, Santa Clara, Calif.). Transcriptional profiling was determined using Illumina Sentrix BeadChips (Illumina, San Diego, Calif.). Total RNA was used to generate biotin-labeled cRNA with the Illumina TotalPrep RNA Amplification Kit. In short, 0.5 ug of total RNA was first converted into single-stranded cDNA with reverse transcriptase using an oligo-dT primer containing the T7 RNA polymerase promoter site and then copied to produce double-stranded cDNA molecules. The double-stranded cDNA was cleaned and concentrated with the supplied columns and used in an overnight in-vitro transcription reaction where single-stranded RNA (cRNA) was generated incorporating biotin-16-UTP. A total of 0.75 μg of biotin-labeled cRNA was hybridized at 58° C. for 16 hours to Illumina's Sentrix Rat Ref-12 Expression BeadChips. Each BeadChip has ˜22,000 well-annotated RefSeq transcripts with approximately 30-fold redundancy. The arrays were washed, blocked and the labeled cRNA was detected by staining with streptavidin-Cy3. Hybridized arrays were scanned using an Illumina BeadStation 500× Genetic Analysis Systems scanner and the image data extracted using Illumina's GenomeStudio software, version 1.6.1. For statistical analysis, the expression data were filtered to include only probes with a consistent signal on each chip and an Illumina detecton p value <0.02.
Correlation analysis, sample clustering analysis and principal component analysis was performed to identify/exclude any possible outliers. The resulting dataset was next analyzed with DIANE 6.0, a spreadsheet-based microarray analysis program using value statistics for Z-Score reliability below 0.05; and mean background-corrected signal intensity greater than zero.
Gene set enrichment analysis use gene expression values or gene expression change values for all of the genes in the microarray. Parametric analysis of gene set enrichment (PAGE) was used using the WEB-PAGE GSA tool for gene set analysis. Gene Sets include the MSIG database, Gene Ontology Database, GAD human disease and mouse phenotype gene sets were used to explore functional level changes. Gene-gene interaction was also analyzed using the INGENUITY® Pathway Analysis (IPA) system (INGENUITY® Systems).

COc1ccc(C[C@@H](C)NC[C@H](O)c2cc(O)cc(O)c2)c2ccccc12 [(R,R′)-MNF, (R,R′)-4′-methoxy-1-naphthylfenoterol]
Z score, ADIP_DIFF_CLUSTERS (cohort 1): −4.6054 | Z score, ATRBRCAPATHWAY (cohort 1): −1.8815 | Z score, BRCA_PROGNOSIS_NEG (cohort 1): −3.2974 | Z score, BRENTANI_REPAIR (cohort 1): −3.8568 | Z score, CANCER_UNDIFFERENTIATED_META_UP (cohort 1): −4.8288 | Z score, CELL_CYCLE (cohort 1): −5.0187 | Z score, CELL_CYCLE_KEGG (cohort 1): −4.1925 | Z score, CMV_IE86_UP (cohort 1): −6.1497 | Z score, CROONQUEST_IL6_STARVE_UP (cohort 1): −6.5055 | Z score, CROONQUIST_IL6_RAS_DN (cohort 1): −6.7147 | Z score, DAC_FIBRO_DN (cohort 1): −4.4476 | Z score, DNA_REPLICATION_REACTOME (cohort 1): −3.8683 | Z score, DOX_RESIST_GASTRIC_UP (cohort 1): −5.8557 | Z score, E2F1_DNA_UP (cohort 1): −3.6781 | Z score, GAY_YY1_DN (cohort 1): −7.6370 | Z score, GOLDRATH_HP (cohort 1): −2.4433 | Z score, HDACI_COLON_BUT12 HRS_UP (cohort 1): 5.3212 | Z score, HDACI_COLON_BUT16HRS_UP (cohort 1): 3.6723 | Z score, HDACI_COLON_BUT24HRS_UP (cohort 1): 3.0864 | Z score, HDACI_COLON_TSABUT_UP (cohort 1): 4.1465 | Z score, HIPPOCAMPUS_DEVELOPMENT_POSTNATAL (cohort 1): 3.6731 | Z score, HOFFMANN_BIVSBII_BI_TABLE2 (cohort 1): −5.1273 | Z score, HYPOPHYSECTOMY_RAT_DN (cohort 1): 3.6187 | Z score, IDX_TSA_UP_CLUSTER3 (cohort 1): −6.1057 | Z score, IRITANI_ADPROX_LYMPH (cohort 1): −5.1468 | Z score, KAMMINGA_EZH2_TARGETS (cohort 1): −5.3211 | Z score, KENNY_WNT_UP (cohort 1): −4.0135 | Z score, LAMB_CYCLIN_D3_GLOCUS (cohort 1): −2.8637 | Z score, LEE_TCELLS2_UP (cohort 1): −4.1051 | Z score, LEE_TCELLS3_UP (cohort 1): −7.2409 | Z score, LI_FETAL_VS_WT_KIDNEY_DN (cohort 1): −5.4447 | Z score, MANALO_HYPOXIA_DN (cohort 1): −3.2723 | Z score, MIDDLEAGE_DN (cohort 1): −3.6696 | Z score, MOREAUX_TACI_HI_IN_PPC_UP (cohort 1): −2.9881 | Z score, MOREAUX_TACI_HI_VS_LOW_DN (cohort 1): −4.3721 | Z score, OLDAGE_DN (cohort 1): −4.5391 | Z score, P21_P53_ANY_DN (cohort 1): −5.0275 | Z score, PEART_HISTONE_DN (cohort 1): −2.5055 | Z score, PODI_KO_UP (cohort 1): −3.9363 | Z score, PRMT5_KD_UP (cohort 1): −9.3903 | Z score, REN_E2F1_TARGETS (cohort 1): −2.9150 | Z score, SASAKI_ATL_UP (cohort 1): −5.0963 | Z score, SASAKI_TCELL_LYMPHOMA_VS_CD4_UP (cohort 1): −5.0963 | Z score, SERUM_FIBROBLAST_CELLCYCLE (cohort 1): −7.2985 | Z score, SHEPARD_BMYB_MORPHOLINO_DN (cohort 1): −4.3350 | Z score, SHEPARD_CRASH_AND_BURN_MUT_VS_WT_DN (cohort 1): −3.9994 | Z score, SHEPARD_GENES_COMMON_BW_CB_MO (cohort 1): −4.0300 | Z score, STEMCELL_NEURAL_UP (cohort 1): −6.0983 | Z score, TARTE_MATURE_PC (cohort 1): 3.6636 | Z score, TARTE_PLASMA_BLASTIC (cohort 1): −4.8905 | Z score, VERNELL_PRB_CLSTR1 (cohort 1): −3.4691 | Z score, YU_CMYC_UP (cohort 1): −4.4689 | Z score, ZHAN_MM_CD138_PR_VS_REST (cohort 1): −6.1404 | Z score, ADIP_DIFF_CLUSTERS (cohort 2): −6.8850 | Z score, ATRBRCAPATHWAY (cohort 2): −2.9977 | Z score, BRCA_PROGNOSIS_NEG (cohort 2): −5.4682 | Z score, BRENTANI_REPAIR (cohort 2): −2.9453 | Z score, CANCER_UNDIFFERENTIATED_META_UP (cohort 2): −6.2847 | Z score, CELL_CYCLE (cohort 2): −7.4222 | Z score, CELL_CYCLE_KEGG (cohort 2): −7.0955 | Z score, CMV_IE86_UP (cohort 2): −6.5954 | Z score, CROONQUEST_IL6_STARVE_UP (cohort 2): −9.0059 | Z score, CROONQUIST_IL6_RAS_DN (cohort 2): −7.7040 | Z score, DAC_FIBRO_DN (cohort 2): −4.9523 | Z score, DNA_REPLICATION_REACTOME (cohort 2): −6.5700 | Z score, DOX_RESIST_GASTRIC_UP (cohort 2): −8.6145 | Z score, E2F1_DNA_UP (cohort 2): −4.4885 | Z score, GAY_YY1_DN (cohort 2): −4.7456 | Z score, GOLDRATH_HP (cohort 2): −2.2875 | Z score, HDACI_COLON_BUT12 HRS_UP (cohort 2): 3.6676 | Z score, HDACI_COLON_BUT16HRS_UP (cohort 2): 3.4287 | Z score, HDACI_COLON_BUT24HRS_UP (cohort 2): 3.3154 | Z score, HDACI_COLON_TSABUT_UP (cohort 2): 3.4480 | Z score, HIPPOCAMPUS_DEVELOPMENT_POSTNATAL (cohort 2): 10.3312 | Z score, HOFFMANN_BIVSBII_BI_TABLE2 (cohort 2): −7.7114 | Z score, HYPOPHYSECTOMY_RAT_DN (cohort 2): 3.9294 | Z score, IDX_TSA_UP_CLUSTER3 (cohort 2): −10.1593 | Z score, IRITANI_ADPROX_LYMPH (cohort 2): −3.3728 | Z score, KAMMINGA_EZH2_TARGETS (cohort 2): −7.2448 | Z score, KENNY_WNT_UP (cohort 2): −5.5586 | Z score, LAMB_CYCLIN_D3_GLOCUS (cohort 2): −4.3054 | Z score, LEE_TCELLS2_UP (cohort 2): −5.6671 | Z score, LEE_TCELLS3_UP (cohort 2): −8.0339 | Z score, LI_FETAL_VS_WT_KIDNEY_DN (cohort 2): −9.1715 | Z score, MANALO_HYPOXIA_DN (cohort 2): −6.1956 | Z score, MIDDLEAGE_DN (cohort 2): −7.7600 | Z score, MOREAUX_TACI_HI_IN_PPC_UP (cohort 2): −3.8456 | Z score, MOREAUX_TACI_HI_VS_LOW_DN (cohort 2): −3.2936 | Z score, OLDAGE_DN (cohort 2): −7.1043 | Z score, P21_P53_ANY_DN (cohort 2): −7.4300 | Z score, PEART_HISTONE_DN (cohort 2): −5.2170 | Z score, PODI_KO_UP (cohort 2): −4.3565 | Z score, PRMT5_KD_UP (cohort 2): −5.4620 | Z score, REN_E2F1_TARGETS (cohort 2): −3.5319 | Z score, SASAKI_ATL_UP (cohort 2): −5.5299 | Z score, SASAKI_TCELL_LYMPHOMA_VS_CD4_UP (cohort 2): −5.5299 | Z score, SERUM_FIBROBLAST_CELLCYCLE (cohort 2): −10.6997 | Z score, SHEPARD_BMYB_MORPHOLINO_DN (cohort 2): −4.7947 | Z score, SHEPARD_CRASH_AND_BURN_MUT_VS_WT_DN (cohort 2): −4.0540
